Results published in patent US20070027143A1, “Novel substituted 2,3-benzodiazepine derivatives” (priority 2003, published 2007).
Read-outs that look alike come from different tables or passages of the source. Marks after values point to notes of the source that are not given here.

How the values were obtained:
AMPA receptors = experiment: Inhibition of AMPA induced spreading depression in isolated chicken retina; type: cell-based; conditions: AMPA (5 μM)
How it was run: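 Isolated chicken retina; spreading depression evoked by 5 μM AMPA. Antagonism read as prolongation of the latency to spreading-depression onset.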

CD1 mice [1] = experiment: Anticonvulsant activity, maximal electroshock seizure (MES) test; type: in vivo; conditions: Mus musculus, po.
Lewis rats [2] = experiment: Autoimmune encephalomyelitis model, neurological (clinical) symptoms; type: in vivo; conditions: for Neurological symptoms (change, %): day 24 after immunization; for change in vivo at 15 mg/kg / change in vivo at 30 mg/kg / change in vivo at 1.875 mg/kg / change in vivo at 3.75 mg/kg / change in vivo at 7.5 mg/kg / change in vivo at 0.2 mg/kg / change in vivo at 0.5 mg/kg / change in vivo at 1 mg/kg: Rattus norvegicus, read-out: Neurological symptoms (change compared to controls, %)
Method: The compounds were administered intraperitoneally twice a day for 8 days, starting on day 10 after immunization and with an observation period until symptoms were present. 5-15 animals were used in each group. Their weights were 160-180 g (Lewis rats, female) and 180-220 g (Lewis rats, male). The activity of the compounds was determined according to the symptom score values, and compared to those of the control group (see Table 6). Histopathological investigations were carried out on the brain stem, the spinal cord, and the sciatic nerve (Gijbels et al., J. Clin. Invest. 94:2177 (1994)) using 5-10 animal/group.
Compounds of the invention were further investigated in the autoimmune encephalomyelitis model in rats as outlined in this description before, with the variance that 10 animals were used in each group, of weights 140-160 g (Lewis rats, female).

CD1 mice [3] = experiment: Anti-tremor effect, harmaline induced tremor; type: in vivo; conditions: po., Litchfield-Wilcoxon, limits in brackets
BN rats = experiment: Bronchial hyperresponsiveness of ovalbumin sensitized, antigen challenged BN rats (tracheal rings, acetylcholine); type: in vivo; conditions: 3.0 mg/kg po, 2 hours pre-challenge, mean ± SE
Description: Bronchial hyperresponsiveness (BHR) and airway eosinophilia (AEP) are characteristic features of bronchial asthma. BHR is typified by an exaggerated response to a wide variety of stimuli that can induce an increased resistance to airflow in the airways. AEP is a result of prolonged eosinophil infiltration, mast cell, and T cell activation in the airways. In actively (e.g., ovalbumin) immunized rats (e.g., Brown Norway [BN] strain), repeated sensitization followed by antigenic challenge results in lung eosinophilia and bronchial hyperresponsiveness to different spasmogens (e.g., acetylcholine). This is the most frequently employed model for studying potential anti-asthmatic effects of new chemical entities.
BN rats were actively immunized with allergen (ovalbumin). On day one, rats were sensitized with the subcutaneous administration of ovalbumin suspended in Al(OH)3 (2.5 μg ovalbumin +20 mg Al(OH)3 in 0.5 ml saline). Booster injections (same dose and same route) were given at day 14 and 21. Simultaneously at each occasion 0.25 ml of Bordatella pentussis vaccine was injected intraperitoneally. On day 28, animals were challenged by inhalation of the antigen (vaporized 1% OVA solution for 1 hour). Test compounds were administered orally 2 hours pre-challenge.
48 hours following challenge, they were sacrificed by an overdose of urethane (4-5 ml of 15% urethane given i.p.), bronchoalveolar lavage fluid (BALF) was obtained, and tracheae dissected from the animals. Eosinophil cell count (cells/ml BALF) was determined manually using a selective stain for eosinophils and counting the cells in a Buerker chamber. BHR was determined using tracheal rings suspended in an organ bath. After an equilibration period of 30 minutes, cumulative concentration response curves to acetylcholine were determined. Maximal response of control (unchallenged, non-treated) tracheal rings is obtained at 10^−3 M acetylcholine. The height of this response is defined as 100%. All other contractions are expressed as a percentage and related to the control response.

epilepsy patients = conditions: Bialer et al.; cited from earlier work
Lewis rats [4] = experiment: Autoimmune encephalomyelitis model, neurological (clinical) symptoms; type: in vivo; conditions: Rattus norvegicus, po, female rats, read-out: Neurological symptoms (change compared to controls, %); for change in vivo at 3.75 mg/kg: 3.75 mg/kg p.o.
[5] = 0.5 h, 30′, read-out: MES 30′ ED50
[6] = 1 h, 60 min before induction, read-out: MES (MES 60′) ED50
[7] = ip, 15 mg/kg ip., female rats, 0-8 day
[8] = ip, 15 mg/kg ip., female rats, 0-14 day
[9] = ip, 15 mg/kg ip., male rats, 0-8 day
[10] = ip, 15 mg/kg ip., male rats, 0-14 day
[11] = ip, 1.875 mg/kg ip., female rats, 0-8 day
[12] = ip, 1.875 mg/kg ip., female rats, 0-14 day
[13] = ip, 3.75 mg/kg ip., female rats, 0-8 day
[14] = ip, 3.75 mg/kg ip., female rats, 0-14 day

CC(=O)N1N=C(c2ccc(N)cc2)c2cc3c(cc2C[C@H]1C)OCO3 [GYKI 53773, (R)-7-acetyl-5-(4-aminophenyl)-8,9-dihydro-8-methyl-7H-1,3-dioxolo[4,5-h][2,3]benzodiazepine, reference compound]
IC50 (AMPA receptors): 1200 nM
ED50 (CD1 mice [1]; [5]): 4.9 mg/kg
ED50 (CD1 mice [1]; [6]): 8.6 mg/kg
Neurological symptoms (change, %) (Lewis rats [2]; 30 mg/kg ip., female rats): −41%
Neurological symptoms (change, %) (Lewis rats [2]; 30 mg/kg ip., male rats): −26%
change in vivo at 15 mg/kg (Lewis rats [2]; [7]): -60%
change in vivo at 15 mg/kg (Lewis rats [2]; [8]): -63%
change in vivo at 15 mg/kg (Lewis rats [2]; [9]): -8%
change in vivo at 15 mg/kg (Lewis rats [2]; [10]): 7%
change in vivo at 30 mg/kg (Lewis rats [2]; ip, 30 mg/kg ip., female rats, 0-8 day): -38%
change in vivo at 30 mg/kg (Lewis rats [2]; ip, 30 mg/kg ip., female rats, 0-14 day): -27%
change in vivo at 30 mg/kg (Lewis rats [2]; ip, 30 mg/kg ip., male rats, 0-8 day): -43%
change in vivo at 30 mg/kg (Lewis rats [2]; ip, 30 mg/kg ip., male rats, 0-14 day): -29%
ED50, tremor induced by Harmaline 40 mg/kg ip. (CD1 mice [3]): 9.0(−7.4-10.9) mg/kg po.
MAX: relative contraction compared to the control at a maximal Ach concentration (BN rats): 85 ± 43%
Activity in clinical trials on epilepsy patients (epilepsy patients): active

Cc1nnc(N2N=C(c3ccc(N)cc3)c3cc4c(cc3C[C@H]2C)OCO4)s1 [Example 86, (R)-5-(4-Aminophenyl)-8-methyl-7-(5-methyl-1,3,4-thiadiazol-2-yl)-8,9-dihydro-7H-1,3-dioxolo-[4,5-h][2,3]benzodiazepine]
IC50 (AMPA receptors): 420 nM
ED50 (CD1 mice [1]; [5]): 4.3 mg/kg
ED50 (CD1 mice [1]; [6]): 6.1 mg/kg
Neurological symptoms (change, %) (Lewis rats [2]; 1.875 mg/kg ip., female rats): −42%
Neurological symptoms (change, %) (Lewis rats [2]; 1.875 mg/kg ip., male rats): +54%
Neurological symptoms (change, %) (Lewis rats [2]; 3.75 mg/kg ip., female rats): −21%
Neurological symptoms (change, %) (Lewis rats [2]; 3.75 mg/kg ip., male rats): −72%
Neurological symptoms (change, %) (Lewis rats [2]; 7.5 mg/kg ip., female rats): −62%
Neurological symptoms (change, %) (Lewis rats [2]; 7.5 mg/kg ip., male rats): −66%
Neurological symptoms (change, %) (Lewis rats [2]; 15 mg/kg ip., female rats): −85%
Neurological symptoms (change, %) (Lewis rats [2]; 15 mg/kg ip., male rats): −67%
change in vivo at 1.875 mg/kg (Lewis rats [2]; [11]): -40%
change in vivo at 1.875 mg/kg (Lewis rats [2]; [12]): -39%
change in vivo at 1.875 mg/kg (Lewis rats [2]; ip, 1.875 mg/kg ip., male rats, 0-8 day): 5%
change in vivo at 1.875 mg/kg (Lewis rats [2]; ip, 1.875 mg/kg ip., male rats, 0-14 day): -8%
change in vivo at 3.75 mg/kg (Lewis rats [2]; [13]): -3%
change in vivo at 3.75 mg/kg (Lewis rats [2]; [14]): -18%
change in vivo at 3.75 mg/kg (Lewis rats [2]; ip, 3.75 mg/kg ip., male rats, 0-8 day): -70%
change in vivo at 3.75 mg/kg (Lewis rats [2]; ip, 3.75 mg/kg ip., male rats, 0-14 day): -77%
change in vivo at 7.5 mg/kg (Lewis rats [2]; ip, 7.5 mg/kg ip., female rats, 0-8 day): -62%
change in vivo at 7.5 mg/kg (Lewis rats [2]; ip, 7.5 mg/kg ip., female rats, 0-14 day): -66%
change in vivo at 7.5 mg/kg (Lewis rats [2]; ip, 7.5 mg/kg ip., male rats, 0-8 day): -65%
change in vivo at 7.5 mg/kg (Lewis rats [2]; ip, 7.5 mg/kg ip., male rats, 0-14 day): -70%
change in vivo at 15 mg/kg (Lewis rats [2]; [7]): -97%
change in vivo at 15 mg/kg (Lewis rats [2]; [8]): -85%
change in vivo at 15 mg/kg (Lewis rats [2]; [9]): -93%
change in vivo at 15 mg/kg (Lewis rats [2]; [10]): -67%
Activity compared to the reference compound (histopathological and pharmacological investigations) (Lewis rats [2]; result in words): more active than the reference compound GYKI 53773
ED50, tremor induced by Harmaline 40 mg/kg ip. (CD1 mice [3]): 6.0(4.9-7.4) mg/kg po.
MAX: relative contraction compared to the control at a maximal Ach concentration (BN rats): 81 ± 14%
pEC50 of acetylcholine (BN rats): 4.95 ± 0.59 −log M

Cc1nnc(N2N=C(c3ccc(N)c(C)c3)c3cc4c(cc3C[C@H]2C)OCO4)s1 [Example 119, (R)-5-(4-amino-3-methylphenyl)-8-methyl-7-(5-methyl-1,3,4-thiadiazol-2-yl)-8,9-dihydro-7H-1,3-dioxolo-[4,5-h][2,3]benzodiazepine]
IC50 (AMPA receptors): 69 nM
ED50 (CD1 mice [1]; [5]): 2.15 mg/kg
ED50 (CD1 mice [1]; [6]): 2.87 mg/kg
Neurological symptoms (change, %) (Lewis rats [2]; 0.2 mg/kg i.p., female rats): −37%
Neurological symptoms (change, %) (Lewis rats [2]; 0.5 mg/kg i.p., female rats): −35%
Neurological symptoms (change, %) (Lewis rats [2]; 0.5 mg/kg p.o., female rats): −1%
Neurological symptoms (change, %) (Lewis rats [2]; 1.0 mg/kg i.p., female rats): −72** %
Neurological symptoms (change, %) (Lewis rats [2]; 1.0 mg/kg p.o., female rats): −23%
Neurological symptoms (change, %) (Lewis rats [2]; 1.875 mg/kg ip., female rats): −71** %
Neurological symptoms (change, %) (Lewis rats [2]; 1.875 mg/kg p.o., female rats): −50** %
Neurological symptoms (change, %) (Lewis rats [2]; 3.75 mg/kg ip., female rats): −90** %
Neurological symptoms (change, %) (Lewis rats [2]; 3.75 mg/kg p.o., female rats): −61*** %
change in vivo at 0.2 mg/kg (Lewis rats [2]; ip, 0.2 mg/kg i.p., female rats, 0-8 day): -36%
change in vivo at 0.2 mg/kg (Lewis rats [2]; ip, 0.2 mg/kg i.p., female rats, 0-14 day): -37%
change in vivo at 0.5 mg/kg (Lewis rats [2]; ip, 0.5 mg/kg i.p., female rats, 0-8 day): -33%
change in vivo at 0.5 mg/kg (Lewis rats [2]; ip, 0.5 mg/kg i.p., female rats, 0-14 day): -35%
change in vivo at 1 mg/kg (Lewis rats [2]; ip, 1.0 mg/kg i.p., female rats, 0-8 day): -75%
change in vivo at 1 mg/kg (Lewis rats [2]; ip, 1.0 mg/kg i.p., female rats, 0-14 day): -72%
change in vivo at 1.875 mg/kg (Lewis rats [2]; [11]): -72%
change in vivo at 1.875 mg/kg (Lewis rats [2]; [12]): -71%
change in vivo at 3.75 mg/kg (Lewis rats [2]; [13]): -97%
change in vivo at 3.75 mg/kg (Lewis rats [2]; [14]): -90%
change in vivo at 0.5 mg/kg (Lewis rats [2]; po, 0.5 mg/kg p.o., female rats, 0-8 day): 2%
change in vivo at 0.5 mg/kg (Lewis rats [2]; po, 0.5 mg/kg p.o., female rats, 0-14 day): -1%
change in vivo at 1 mg/kg (Lewis rats [2]; po, 1.0 mg/kg p.o., female rats, 0-8 day): -20%
change in vivo at 1.875 mg/kg (Lewis rats [2]; po, 1.875 mg/kg p.o., female rats, 0-8 day): -50%
change in vivo at 1.875 mg/kg (Lewis rats [2]; po, 1.875 mg/kg p.o., female rats, 0-14 day): -50%
MAX: relative contraction compared to the control at a maximal Ach concentration (BN rats): 82 ± 7%
pEC50 of acetylcholine (BN rats): 4.35 ± 0.36 −log M
melting point: 158 to 160 °C
change in vivo at 1 mg/kg (Lewis rats [4]; 1.0 mg/kg p.o., 0-14 day): -23%
change in vivo at 3.75 mg/kg (Lewis rats [4]; 0-8 day): -64%
change in vivo at 3.75 mg/kg (Lewis rats [4]; 0-14 day): -61%
